Key:
[1] = system: Normal rats; test: Blood sugar lowering in normal rats after oral administration; type: in vivo, rat; conditions: 0.5 mg/kg oral; for % decrease in plasma glucose: Table 14; for Pre-treatment Plasma glucose: pre-treatment (baseline)
Method: (a) Male Wistar rats are provided from the National Laboratory Animal Breeding and Research Center (Taipei, Taiwan), each of whose weight is about 200-250 grams, and the average age thereof is above 8 weeks. They were housed under conditions of constant temperature (25±1[…]) and controlled illumination (light time and dark time are respectively 12 hours). Food and water were available.
(§1) (d) The administration: Dissolve the medicine equivalently in deionized water, and then administrate the mentioned solution into the normal and diabetic rats by an orally perfusion. Keep with the desired concentration of the perfusion amount by taking suitable amount of the medicine solution according to the weight of the different animal.
(§2) The rats to be experimented should undergo a starvation for 8-12 hours overnight. Next day, the rats are anesthetized with 30 mg/kg pentobarbital by injecting into the abdominal cavity. After the rats fall asleep, fix the rats on the board with the rubber band. Open the groin, find the veins, bleed 0.1 ml blood from an empty stomach, and then feed the medicine into the body of the rats by taking orally. After 90 minutes, bleed and perform a centrifugation (13,000 rpm, 5 minutes) to separate the serum and the plasma. Take the 10 μl supernatant of the serum and add 1 ml reagent of the glucose kit thereinto by gently mixing. React for 5 minutes at 37 °C, followed by detecting the value of the blood sugar by means of BST330 based on the different absorption level. […] The value of the blood sugar (mg/dL) is calculated by comparing the level of redness with contrasting the standard curve.
(§3) (The value of blood sugar at postadministration)−(The value of blood sugar at preadministration)/(The value of blood sugar at preadministration)×100%
The results of the experiments are presented in the average value±the standard error (mean±SE), and the variations therebetween are evaluated according to the Student's t-test, while the variations thereamong are evaluated according to one-way ANOVA and Bonferroni's t-test, wherein P<0.05 is deemed to have apparent differences.

[2] = system: coronary artery; test: Flow rate of the coronary artery in the isolated perfused rat heart (Langendorff); conditions: for effect on coronary flow rate (in words): Wistar rats, Tables 15 and 16; for coronary flow: isolated Wistar rat heart
Method: Each of the male Wistar rats weighs about 200-250 grams, and is anesthetized with 25 mg/kg pentobarbital and 16 mg/kg heparin by injecting into the abdominal cavity. After falling asleep, separate the cervical vertebra and immediately take the heart out hanging on the constant pouring pressure circulation instrument (Langendorff, AD Instruments Pty Ltd, ML870B2) and fill a 37[…] pouring solution of 95% of oxygen and 5% of carbon dioxide with the artery (119.7 mM NaCl, 23.8 mM NaHCO3, 5.6 mM glucose, 1.2 mM CaCl2, 1.1 mM MgCl2, 0.3 mM NaH2PO4, and 5.0 mM KCl), which washes the heart and clean out the blood water by pouring in a reverse direction. The rate of the reverse pouring is 10 ml/min, followed by maintaining the pouring pressure of the coronary artery at 80 mmHg. After balancing for thirty minutes, measure the rate of the pouring solution flowing in the heart, and observe the change of the rate the pouring solution flowing in the heart while the testing drug is added.

[3] = system: Type 2 diabetic rats; test: Blood sugar lowering in insulin-induced type 2 diabetic rats after oral administration; type: in vivo, rat; conditions: type II diabetic rats, 1 mg/kg, p.o., 90 minutes
Method: (c) Insulin-induced type 2 diabetic rats: the abdominal cavity of the male Wistar rats of 12 weeks age are injected with 0.5 IU/kg long-term insulin (MonotardR HM) three times a day for fourteen days. Then, the 10 mg/kg tolbutamide, an anti-diabetic drug of sulfonylurea class, is injected into the abdominal cavity. Phlebotomize 0.1 ml blood respectively at the preadministration and the postadministration of sixty minutes, and calculate the reduced value of the blood sugar. If the variation of the ability of lowering blood sugar is less than 10%, which is deemed as the type II (insulin resistance) diabetes rat.
as §1, §2, §3

[4] = literature; cited from earlier work

Structure (SMILES)	% decrease in plasma glucose [1] [%]	Post-treatment Plasma glucose [1] [mg/dL]	Pre-treatment Plasma glucose [1] [mg/dL]	effect on coronary flow rate (in words) [2]	coronary flow ([2]; conc. 0 (baseline)) [mL/min]	coronary flow ([2]; conc. 1 (unit printed .[…]M)) [mL/min]	coronary flow ([2]; conc. 3 (unit printed .[…]M)) [mL/min]	coronary flow ([2]; conc. 0.1 (unit printed .[…]M)) [mL/min]	coronary flow ([2]; conc. 0.3 (unit printed .[…]M)) [mL/min]	coronary flow ([2]; conc. 10 (unit printed .[…]M)) [mL/min]	other results
CCCCNC(=O)C=Cc1ccc2c(c1)OCO2	–	–	–	–	–	–	–	–	–	–	melting point: 82 to 83 °C
O=C(/C=C/c1ccc2c(c1)OCO2)NCCc1ccccc1 [615 (37)]	23.9 ± 2.1	105.2 ± 3.5	138.3 ± 4.1	–	–	–	–	–	–	–	–
COc1ccc(CCNC(=O)C=Cc2ccc(O)c(O)c2)cc1OC [638 A]	18.1 ± 2.9	83.6 ± 1.9	102.5 ± 2.4	–	–	–	–	–	–	–	–
O=C(C=Cc1ccc(O)c(O)c1)NCCc1ccc(Br)cc1 [638 B]	21.4 ± 3.0	76.8 ± 4.1	98.1 ± 5.2	–	–	–	–	–	–	–	–
CC(=O)Oc1ccc(C=CC(=O)NCCc2ccccc2)cc1OC(C)=O [639 B]	28.1 ± 3.3	84.0 ± 5.0	116.7 ± 2.8	capable of increasing the coronary flow rate	7.4 ± 0.2	9.0 ± 0.4	11.6 ± 0.6	–	–	–	–
O=C(C=Cc1ccc(O)c(O)c1)Nc1ccc(O)cc1 [Compound 638H]	–	–	–	–	9.0 ± 0.3	9.1 ± 0.5	10.1 ± 0.7	9.0 ± 0.5	8.9 ± 0.5	13.1 ± 1.0	–
O=C(C=Cc1ccc(O)c(O)c1)NCc1cccc(F)c1 [Compound 638I]	–	–	–	capable of increasing the coronary flow rate	7.4 ± 0.7	7.6 ± 0.8	8.2 ± 0.8	7.1 ± 0.5	7.1 ± 0.5	9.3 ± 0.7	–
COc1cc(/C=C/C(=O)NCCc2ccccc2)ccc1O [Compound 640]	–	–	–	capable of increasing the coronary flow rate	9.7 ± 1.3	10.3 ± 1.5	11.0 ± 1.5	10.1 ± 1.5	10.2 ± 1.4	14.6 ± 2.2	–
CN(Cc1ccccc1)C(=O)C=Cc1ccc(O)c(O)c1 [Compound 642A]	–	–	–	capable of increasing the coronary flow rate	10.0 ± 0.7	16.8 ± 1.6	19.8 ± 2.1	12.9 ± 0.4	14.2 ± 0.8	–	–
CN(CCc1ccccc1)C(=O)C=Cc1ccc(O)c(O)c1 [Compound 642B]	–	–	–	capable of increasing the coronary flow rate	9.8 ± 2.1	12.8 ± 1.9	17.4 ± 1.9	9.8 ± 2.1	10.4 ± 1.7	23.2 ± 1.7	–
CN(CCOc1ccc(CC2SC(=O)NC2=O)cc1)c1ccccn1 (centres unmarked) [Rosiglitazone, reference compound]	–	–	–	–	–	–	–	–	–	–	% decrease in plasma glucose [3]: 15.6 ± 6.3%
O=C(O)/C=C/c1ccc(O)c(O)c1 [caffeic acid]	–	–	–	–	–	–	–	–	–	–	lowering blood sugar (earlier studies) [4]: effective in lowering blood sugar
COc1cc(CNC(=O)CCCC/C=C/C(C)C)ccc1O [capsaicin]	–	–	–	–	–	–	–	–	–	–	lowering blood sugar (earlier studies) [4]: effective in lowering blood sugar

Source: patent US8088818B2, “Catechol-based derivatives for treating or preventing diabetics” (National Taiwan University, priority 2006, dated 2012)
